In the oligonucleotide strings, read from the 5' end, every base follows the letter of its sugar. An asterisk marks phosphorothioate; unmarked linkages are phosphodiester. Other units and linkages are bracketed, terminal groups are in braces. A string of capitals states the bases alone. d = 2'-deoxy (DNA); m = 2'-O-methyl
Assays:
cGAS [1] = target: T1, cGAS (Homo sapiens, UniProt Q8N884); experiment: ISD70-driven IP-10 production in HT-29 cells, ELISA; type: cell-based; parameters: endogenous in cells; conditions: 187.5 nM ASO overnight, ISD70 24 h
T1 sequence (Q8N884 whole entry): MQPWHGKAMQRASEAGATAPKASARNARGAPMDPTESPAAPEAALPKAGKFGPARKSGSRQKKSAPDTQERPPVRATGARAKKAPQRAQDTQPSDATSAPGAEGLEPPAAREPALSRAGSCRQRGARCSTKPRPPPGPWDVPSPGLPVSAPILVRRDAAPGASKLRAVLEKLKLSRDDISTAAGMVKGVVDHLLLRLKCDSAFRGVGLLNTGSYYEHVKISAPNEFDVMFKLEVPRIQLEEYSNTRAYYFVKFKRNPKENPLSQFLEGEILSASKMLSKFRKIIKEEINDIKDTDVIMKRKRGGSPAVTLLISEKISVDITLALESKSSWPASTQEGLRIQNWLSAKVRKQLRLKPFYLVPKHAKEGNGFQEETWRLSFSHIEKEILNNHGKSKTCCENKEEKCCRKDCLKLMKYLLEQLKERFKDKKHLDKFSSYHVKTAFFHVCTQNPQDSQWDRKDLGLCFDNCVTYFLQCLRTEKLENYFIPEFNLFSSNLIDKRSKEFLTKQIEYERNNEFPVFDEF

cGAS [2] = target: T1, cGAS; experiment: ISD70-driven IP-10 (and IFN-β) production in THP-1 cells, ELISA; type: cell-based; parameters: endogenous in cells; host or cells: THP-1 (undifferentiated); conditions: THP-1; for cGAS-100 nM: averaged IP-10 levels relative to ISD70: 100 nM ASO overnight, then ISD70 2.5 μg/ml 7-8 h, percentage of ISD70 only

Substance	reduction of ISD70-dependent IP-10 production (cGAS [1]) [%]	cGAS-100 nM: averaged IP-10 levels relative to ISD70 (cGAS [2]) [%]	inhibition of ISD70-driven IP-10 production (in words) (cGAS [2]; 2′OMe or PS oligos, 100-250 nM, pre-treatment as in figure legends, ISD70 2.5 μg/ml)
mG*mA*mU*mG*mG*T*T*C*C*A*G*T*C*C*C*mU*mC*mU*mU*mC (GAUGGTTCCAGTCCCUCUUC; antisense; sugars from the 5' end m5 d10 m5, all phosphorothioate, methylation of C not given here) [[LINC-PINT]1497.1]	25	26.05	significant effect
mU*mU*mG*mU*mG*A*A*A*A*G*A*T*T*A*T*mC*mU*mU*mC*mU (mU*mU*mG*mU*mG*dA*dA*dA*dA*dG*dA*dT*dT*dA*dT*mC*mU*mU*mC*mU) [[CDKN2B-AS1]2138]		69.36	
mU*mU*mU*mG*mA*A*A*T*T*C*A*G*A*A*G*mA*mU*mU*mU*mG (mU*mU*mU*mG*mA*dA*dA*dT*dT*dC*dA*dG*dA*dA*dG*mA*mU*mU*mU*mG) [[LINC PINT|2690]		84.15	

Reference: US20240384268A1, “Oligonucleotides” (Hudson Institute of Medical Research, priority 2021, published 2024)
